Source: ChEMBL document CHEMBL1132053, “Synthesis and activity of 2-(sulfonamido)methyl-carbapenems: discovery of a novel, anti-MRSA 1,8-naphthosultam pharmacophore” (Bioorg Med Chem Lett, 1999)
≈ marks a conversion by molar mass, not a printed value.

Tests used:
[1] = tested on: Staphylococcus; assay: (§1) Antibacterial activity against MRCNS; type: functional
[2] = tested on: Enterococcus faecalis; assay: Antibacterial activity against VREFs; type: functional
[3] = tested on: Staphylococcus aureus; assay: Antibacterial activity against MRSA; type: functional
[4] = tested on: Streptococcus pneumoniae; assay: Antibacterial activity against PRSP; type: functional
[5] = tested on: Enterococcus faecium; assay: Antibacterial activity against MDREFm; type: functional
[6] = tested on: Staphylococcus aureus; assay: Antibacterial activity against MRSA strain COL; type: functional
[7] = tested on: Staphylococcus sp.; assay: as §1; type: functional
[8] = target: T1, MecA (Staphylococcus aureus, UniProt Q7DHH4); assay: Compound was tested for its binding affinity towards Penicillin-binding protein 2a (PBP2a) using […]-benzylpenicillin
T1 sequence (Q7DHH4 whole entry): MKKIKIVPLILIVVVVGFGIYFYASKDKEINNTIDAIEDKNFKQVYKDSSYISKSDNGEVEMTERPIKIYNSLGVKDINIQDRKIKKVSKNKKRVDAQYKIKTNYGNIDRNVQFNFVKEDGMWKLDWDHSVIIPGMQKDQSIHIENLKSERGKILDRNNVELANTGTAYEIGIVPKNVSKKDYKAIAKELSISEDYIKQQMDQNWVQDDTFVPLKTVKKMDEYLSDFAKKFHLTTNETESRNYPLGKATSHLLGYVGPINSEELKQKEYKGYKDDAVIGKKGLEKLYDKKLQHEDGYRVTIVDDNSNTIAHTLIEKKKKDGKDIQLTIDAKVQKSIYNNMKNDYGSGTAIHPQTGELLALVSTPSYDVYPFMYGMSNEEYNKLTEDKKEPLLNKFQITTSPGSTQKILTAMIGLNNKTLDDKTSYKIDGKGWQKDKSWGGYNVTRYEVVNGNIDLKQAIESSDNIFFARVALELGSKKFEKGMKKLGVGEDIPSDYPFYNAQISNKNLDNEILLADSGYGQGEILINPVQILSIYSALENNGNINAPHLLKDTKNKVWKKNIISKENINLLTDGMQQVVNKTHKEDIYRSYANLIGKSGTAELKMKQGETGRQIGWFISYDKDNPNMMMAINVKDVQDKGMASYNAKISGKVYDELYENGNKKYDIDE

[9] = tested on: Staphylococcus aureus; assay: Antibacterial activity against for MRSA strain COL; type: functional

Row | MIC [1] [µg/mL] | MIC [6] [µg/mL] | MIC [9] [µg/mL] | Compound | MIC [2] [µg/mL] | MIC [3] [µg/mL] | MIC [4] [µg/mL] | MIC [5] [µg/mL] | MIC [7] [µg/mL] | IC50 [8] [µM]
1 | 21.1 | 32 |  | C[C@@H](O)[C@H]1C(=O)N2C(C(=O)[O-])=C(CN3C(=O)c4cccc5cccc3c45)[C@H](C)[C@H]12.[Na+] | 64 | 12 | 4 | 64 |  | 
2 |  | 64 |  | C[C@@H](O)[C@H]1C(=O)N2C(C(=O)[O-])=C(CN(c3ccccc3)S(=O)(=O)c3ccc4ccccc4c3)[C@H](C)[C@H]12.[Na+] |  |  |  |  |  | 
3 |  | > 64 |  | C[C@@H](O)[C@H]1C(=O)N2C(C(=O)[O-])=C(CN(c3ccc4ccccc4c3)S(C)(=O)=O)[C@H](C)[C@H]12.[Na+] |  |  |  |  |  | 
4 |  | 64 |  | C[C@@H](O)[C@H]1C(=O)N2C(C(=O)[O-])=C(CN(c3ccccc3)S(=O)(=O)c3ccccc3)[C@H](C)[C@H]12.[Na+] |  |  |  |  |  | 
5 |  | > 64 |  | C[C@@H](O)[C@H]1C(=O)N2C(C(=O)[O-])=C(CN(c3cccc4c3-c3ccccc3C4=O)S(C)(=O)=O)[C@H](C)[C@H]12.[Na+] |  |  |  |  |  | 
6 |  | 2 |  | C[C@@H](O)[C@H]1C(=O)N2C(C(=O)[O-])=C(CN3c4cccc5cccc(c45)S3(=O)=O)[C@H](C)[C@H]12.[Na+] |  |  |  |  |  | 
7 |  | 16 |  | C[C@@H](O)[C@H]1C(=O)N2C(C(=O)[O-])=C(CN3C(=O)c4ccccc4S3(=O)=O)[C@H](C)[C@H]12.[Na+] |  |  |  |  |  | 
8 |  |  |  | CN[C@H](CC(C)C)C(=O)N[C@H]1C(=O)N[C@@H](CC(N)=O)C(=O)N[C@H]2C(=O)N[C@H]3C(=O)N[C@H](C(=O)N[C@H](C(=O)O)c4cc(O)cc(O)c4-c4cc3ccc4O)[C@H](O)c3ccc(c(Cl)c3)Oc3cc2cc(c3O[C@@H]2O[C@H](CO)[C@@H](O)[C@H](O)[C@H]2O[C@H]2C[C@](C)(N)[C@H](O)[C@H](C)O2)Oc2ccc(cc2Cl)[C@H]1O [VANCOMYCIN] | > 64 | 0.9 (≈ 0.621 µM) | 0.35 (≈ 0.242 µM) | 20.2 (≈ 13.9 µM) | 1.7 (≈ 1.17 µM) | 
9 |  | 64 |  | C[C@@H](O)[C@H]1C(=O)N2C(C(=O)[O-])=C(CN(c3ccc4ccccc4c3)S(=O)(=O)c3ccccc3)[C@H](C)[C@H]12.[Na+] |  |  |  |  |  | 
10 |  |  | > 64 | C[C@@H](O)[C@H]1C(=O)N2C(C(=O)[O-])=C(CN(c3cccc4ccccc34)S(C)(=O)=O)[C@H](C)[C@H]12.[Na+] |  |  |  |  |  | 
11 |  | 8 |  | C[C@@H](O)[C@H]1C(=O)N2C(C(=O)[O-])=C(CN3c4ccccc4-c4ccccc4S3(=O)=O)[C@H](C)[C@H]12.[Na+] |  |  |  |  |  | 
12 |  | 16 |  | C[C@@H](O)[C@H]1C(=O)N2C(C(=O)[O-])=C(CN3c4ccccc4CS3(=O)=O)[C@H](C)[C@H]12.[Na+] |  |  |  |  |  | 
13 |  | 64 |  | C[C@@H](O)[C@H]1C(=O)N2C(C(=O)[O-])=C(CN3Cc4ccccc4S3(=O)=O)[C@H](C)[C@H]12.[Na+] |  |  |  |  |  | 
14 |  |  |  | C[C@@H](O)[C@H]1C(=O)N2C(C(=O)O)=C(SCCNC=N)C[C@H]12 [IMIPENEM ANHYDROUS] | 8 (≈ 26.7 µM) | > 40 | 0.25 (≈ 0.835 µM) | > 64 | > 64 | 628

Row | Compound | MIC [1] [µg/mL] | MIC [6] [µg/mL] | MIC [9] [µg/mL] | MIC [2] [µg/mL] | MIC [3] [µg/mL] | MIC [4] [µg/mL] | MIC [5] [µg/mL] | MIC [7] [µg/mL] | IC50 [8] [µM]
15 | C[C@@H](O)[C@H]1C(=O)N2C(C(=O)[O-])=C(CN3C(=O)c4cccc5cccc(c45)C3=O)[C@H](C)[C@H]12.[Na+] |  | 32 |  | 24.3 | 12 | 1.4 | 64 | 24.3 | 3.16
16 | C[C@@H](O)[C@H]1C(=O)N2C(C(=O)[O-])=C(CN3c4cccc5cccc(c45)N(C)S3(=O)=O)[C@H](C)[C@H]12.[Na+] |  | 4 |  | 64 | 1.5 | 1 | 64 | 7 | 14.8
17 | C[C@@H](O)[C@H]1C(=O)N2C(C(=O)[O-])=C(CN3C(=O)c4cccc5cccc(c45)S3(=O)=O)[C@H](C)[C@H]12.[Na+] |  | 8 |  | 8 | 4 | 0.25 | 32 | 8 | 5.02
18 | C[C@@H](O)[C@H]1C(=O)N2C(C(=O)[O-])=C(CN3Cc4c(ccc5ccccc45)S3(=O)=O)[C@H](C)[C@H]12.[Na+] |  | 8 |  | 8 | 3.4 | 0.17 | 50.8 | 10.6 | 38.1
19 | C[C@@H](O)[C@H]1C(=O)N2C(C(=O)[O-])=C(CN3C(=O)c4c(ccc5ccccc45)S3(=O)=O)[C@H](C)[C@H]12.[Na+] |  | 4 |  | 8 | 1.3 | 0.25 | 20.2 | 5.3 | 3.34
20 | C[C@@H](O)[C@H]1C(=O)N2C(C(=O)[O-])=C(CN3Cc4cccc5cccc(c45)S3(=O)=O)[C@H](C)[C@H]12.[Na+] |  | 16 |  | 8 | 8.5 | 0.12 | 40.3 | 16 | 46.9
